Patent US12178224B1, “Use of gamma-quaternary ammonium butyrate compound in preparation of an animal feed additive” (ANIPHA TECHNOLOGIES PTY LTD, priority 2019, dated 2024)

Key:
[1] = tested on: porkers; assay: Effect on the production performance of porkers (breeding test); assay type: in vivo; conditions: 1000 ppm in basal diet, 28 days; for FCR (feed conversion ratio): ADFI/ADG
Excerpt: 90 head of “duroc×landrace×Large Yorkshire” three-way cross lean-type pigs with similar weights having an average weight of 80 kg were randomly divided into 3 treatment groups, each group having 3 repetitions, and each repetition having 10 pigs, half male and half female. The pigsty and appliances were sterilized before testing. During the test, the piglets were fed in separate pigpens under the same feeding and management condition in the same pigsty. During the test, the test pigs ate and drank freely, and were fed twice a day. Each test group is a control group (Group I) and test groups II to III, respectively. Wherein, the control group was fed with a basal diet only, and the test groups II to III were fed with diets that were supplemented with 1000 ppm of different γ-quaternary ammonium butyrate compounds on the basis of the basal diet, specifically as shown in Table 1.
During the entire feeding process, no additional antioxidant components or growth promoters were added for each test group. The test period is 28 days, with each repetition as a unit, the pigs were weighed on the 28th day of the test after not stopping water but stopping feeding for 12 hours to calculate the average daily feed intake (ADFI, g/d*head), average daily gain (ADG, g/d*head) and feed conversion ratio (FCR) for each test group. The calculation formulas are as follows: Average daily feed intake=(total amount of feeds-remaining amount of feeds)/(test days×number of pigs per repetition); Average daily gain=(average weight at the end of the test-average weight at the beginning of the test)/test days; Feed conversion ratio=average daily feed intake/average daily gain.

[2] = tested on: broilers; assay: Effect on the production performance of broilers (breeding test); assay type: in vivo, Chinese three-yellow-feather broilers; conditions: 600 ppm in basal diet, 20 days; for FCR (feed conversion ratio): ADFI/ADG
Procedure: A single-factor random design was adopted for the test. 360 of one-day-old Chinese three-yellow-feather broilers with similar weights having an average weight of 50 g were randomly divided into 3 treatment groups, each group having 6 repetitions, half male and half female, and each repetition having 20 Chinese three-yellow-feather broilers. The henhouse and appliances were sterilized before testing. During the test, the cage rearing was carried out in the same henhouse under the same feeding and management condition. The basal diet is mainly a corn-soybean meal, and no additional antioxidant components or growth promoters were added during the entire feeding process. Each test group is a control group (Group I) and test groups II to III, respectively. Wherein, the control group was fed with the basal diet only, and the test groups II to III were fed with basal diets that were added with 600 ppm of different γ-quaternary ammonium butyrate compounds.
The test period was 20 days in total. The test broilers were free to drink and eat, and were fed twice a day. With each repetition as a unit, the test broilers were weighed at the age of 21 days (stopping feeding for 12 hours, without stopping water) to count the consumption of the test broilers, calculate the average daily feed intake (ADFI, g/d*number of broilers), average daily gain (ADG, g/d*number of broilers) and feed conversion ratio (FCR) of each group of test broilers. The calculation formulas are as follows: Feed conversion ratio (FCR)=average daily feed intake/average daily gain.

[3] = tested on: tilapia; conditions: L-carnitine in basal diet, compared with the blank Control group; cited from earlier work

SMILES | ADFI (average daily feed intake) [1] [g/d * head] | ADG (average daily gain) [1] [g/d * head] | FCR (feed conversion ratio) [1] | ADFI (average daily feed intake) [2] | ADG (average daily gain) [2] | FCR (feed conversion ratio) [2] | weight gain rate reduced [3] [%]
CCOC(=O)C[C@@H](O)C[N+](C)(C)C [ethyl L-carnitine bromide, ethyl (R)-3-hydroxy-4-(trimethylammonium) butyrate bromide] | 2624 | 788 | 3.33 | 31.34 g/d * number of broilers | 13.00 g/d * number of broilers | 2.41 | 
C[N+](C)(C)C[C@H](O)CC(=O)[O-] [L-carnitine] |  |  |  |  |  |  | 1.2
C[N+](C)(C)C[C@H](O)CC(=O)OCc1ccccc1 [benzyl L-carnitine chloride] | 2560 | 790 | 3.24 | 32.18 g/d * number of broilers | 13.46 g/d * number of broilers | 2.39 | 
